Data published in the supplement of paper PMC4858399.

Experiments:
[1] = tested on: Caenorhabditis elegans N2; test: mean nematode size ln(EXT) after 48 h, plate-adjusted (DMSO control set to 6) (ln(EXT), control-adjusted); higher = larger nematodes / less growth inhibition; conditions: exposure time 48 h
Procedure, shortened: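 A growth model removed debris from Biosort extinction readings taken on each worm. These worms were synchronised C. elegans N2 L1 larvae, 50 per well in 4–6 wells per treatment, grown for 48 h at 20°C in K-medium with killed OP50, 1% DMSO and 0.5–200 µM chemical. Readings were natural-logged and averaged by well to give mean size. On each plate, the vehicle control mean was subtracted and 6 was added.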

[2] = tested on: Caenorhabditis elegans N2; test: lowest effective concentration for larval growth inhibition (size below effect threshold); higher = less potent; conditions: exposure time 48 h
Procedure, shortened: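 In 96-well plates, 50 C. elegans N2 L1 larvae per well were cultured at 20°C for 48 h in K-medium with killed bacteria and 1% DMSO, plus the chemical at 0.5, 1, 5, 10, 50, 100 or 200 µM. Size was measured as per-worm extinction on a Biosort and log-transformed into well means. Taking the first dose where the plate-adjusted mean size sits under 5.665 and stays there at higher doses gives the lowest effective concentration.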

Compound | mean nematode size ln(EXT) (ln) ([1]; 0.5 µM) | mean nematode size ln(EXT) (ln) ([1]; 1 µM) | mean nematode size ln(EXT) (ln) ([1]; 5 µM) | mean nematode size ln(EXT) (ln) ([1]; 10 µM) | mean nematode size ln(EXT) (ln) ([1]; 50 µM) | mean nematode size ln(EXT) (ln) ([1]; 100 µM) | mean nematode size ln(EXT) (ln) ([1]; 200 µM) | lowest effective concentration [2] [µM]
CC(=O)C(C)=CC1C(C)=CCCC1(C)C (stereo not drawn) | 5.84 | 5.8 | 5.9 | 5.86 | 5.84 | 5.93 | 5.79 | > 200
CC(C)(O)c1ccc(CNC(=O)c2cccnc2Oc2ccc(F)cc2)cc1 | 5.74 | 6.01 | 5.84 | 5.9 | 5.91 | 5.9 | 5.72 | > 200
CC(C)(O)c1ccc(CNC(=O)c2cccnc2Oc2ccc3nonc3c2)cc1 | 5.94 | 5.81 | 5.9 | 5.71 | 5.92 | 5.81 | 5.8 | > 200
CC(C)c1cccc(C(C)C)c1NC(=O)NS(=O)(=O)c1cc(C(C)(C)O)co1 | 5.93 | 5.86 | 5.97 | 5.91 | 6 | 5.8 | 5.79 | > 200
CCCCc1ccc2c(n1)[C@@H](c1ccc(OC)cc1C[C@H](C)C(=O)O)[C@H](C(=O)O)[C@H]2c1ccc2c(c1)OCO2 | 5.82 | 5.87 | 5.83 | 6.32 | 5.91 | 5.95 | 5.88 | > 200
CCCOc1ccc(S(=O)(=O)N2CCN(CC)CC2)cc1-c1nc2c(CC)n(Cc3ccccn3)nc2c(=O)[nH]1 | 5.7 | 6.03 | 5.83 | 5.88 | 5.91 | 5.88 | 5.69 | > 200
CCN(C(=O)c1cc(C)cc(OC[C@H](C)Nc2ccncc2)c1)C(C)C | 5.67 | 5.78 | 5.59 | 5.63 | 5.56 | 5.61 | 5.82 | > 200
CCn1nc(C)c2c1C(=O)NCC(c1ccc(O)cc1)=N2 | 5.87 | 5.81 | 5.85 | 5.89 | 5.87 | 5.9 | 5.71 | > 200
CCn1nc(Cc2ccccc2)cc1C1CCN(C[C@H]2C[C@H](N(C)[C@@H](C(=O)O)C(C)C)C[C@@H]2c2cccc(F)c2)CC1 | 5.93 | 5.9 | 5.91 | 5.93 | 5.92 | 5.83 | 5.73 | > 200
CN(C)C(=O)NC1(c2ccccc2)CCN(CC[C@@]2(c3ccc(F)c(F)c3)CN(C(=O)c3ccccc3)CCO2)CC1 | 5.89 | 5.86 | 5.86 | 5.8 | 5.9 | 5.92 | 5.68 | > 200
CN(C)CCCN(C)CCCN(C)C | 5.82 | 5.85 | 5.88 | 5.85 | 5.81 | 5.89 | 5.96 | > 200
COCc1nnc(-c2ccc[n+]([O-])c2)n1-c1c(Cl)c(Cl)cc2[nH]c(=O)c(=O)[nH]c12 | 5.89 | 6.15 | 6.22 | 6.24 | 6.17 | 6.08 | 5.67 | > 200
CO[C@@H]1COCC[C@@H]1N[C@@H]1CC[C@@](C(=O)N2CCc3ncc(C(F)(F)F)cc3C2)(C(C)C)C1 | 5.89 | 5.88 | 5.95 | 5.95 | 5.93 | 5.86 | 5.84 | > 200
COc1cc(-c2nc(NC(=O)c3cc4cc(C)cc(C)c4n3CC(=O)O)sc2CCC2CCCCC2)c(OC)cc1Cl | 5.89 | 5.89 | 5.88 | 5.87 | 5.92 | 5.83 | 5.69 | > 200
COc1ccc2sc(C(=O)Nc3nnn[nH]3)c(OC(C)C)c2c1 | 5.89 | 5.99 | 5.89 | 6.11 | 5.82 | 5.86 | 6.09 | > 200
C[C@@H](Oc1ccc(CNC(=O)c2cccnc2Oc2ccc3c(c2)OCO3)c(F)c1)C(=O)O | 5.79 | 5.84 | 5.86 | 5.84 | 5.92 | 5.86 | 5.72 | > 200
Cc1nc(-c2ccccn2)ncc1C(=O)Nn1cc(C)c2cc(F)ccc21 | 5.82 | 5.84 | 5.9 | 5.83 | 5.73 | 5.77 | 5.86 | > 200
Cc1nc(C)nc(N2C[C@@H](C)N(c3ccnc([C@@H](C)O)n3)[C@@H](C)C2)n1 | 5.83 | 5.77 | 5.75 | 5.69 | 5.71 | 5.7 | 5.85 | > 200
Cc1ncc([C@@H](CCCCCCc2ccc3c(n2)NCCC3)CC(=O)O)cn1 | 5.81 | 5.79 | 5.84 | 5.84 | 5.8 | 5.87 | 5.86 | > 200
N#C[C@@H]1CC(F)(F)CN1C(=O)CNC1CC2CCC(C1)N2c1ncccn1 (stereo partly drawn) | 5.82 | 5.89 | 5.85 | 6 | 5.95 | 5.78 | 5.85 | > 200
NCC1(Cc2noc(=O)[nH]2)CCCCC1 | 5.77 | 5.69 | 5.76 | 5.73 | 5.69 | 5.72 | 5.7 | > 200
O=C(N[C@H]1CN2CCC1CC2)c1ccc2c(c1)OCCO2 | 5.82 | 5.83 | 5.8 | 5.8 | 5.81 | 5.81 | 5.67 | > 200
O=C(O)c1ccc2c(c1)nc(C(=O)NC1CCN(C3CC3)CC1)n2Cc1cc(-c2ccc(Cl)s2)on1 | 5.76 | 5.81 | 5.71 | 5.87 | 5.82 | 5.69 | 5.86 | > 200
OCC(CO)n1cnc(-c2ccc(F)cc2)c1-c1ccnc(Oc2ccccc2)n1 | 6.02 | 5.98 | 5.97 | 6.03 | 6.04 | 5.98 | 5.82 | > 200
C1CC2OC2CC1C1CO1 (mixture of isomers) [Vinylcyclohexene dioxide, mixture of isomers] | 5.91 | 5.97 | 5.93 | 5.74 | 5.93 | 5.91 | 5.7 | > 200
CC(C)CC(C)(O)C#CC(C)(O)CC(C)C (racemic) | 5.77 | 5.77 | 5.78 | 5.78 | 5.64 | 5.75 | 5.81 | > 200
